Test results as given in PMC5228037, “Discovery and Mechanistic Characterization of Selective Inhibitors of H2S-producing Enzyme: 3-Mercaptopyruvate Sulfurtransferase (3MST) Targeting Active-site Cysteine Persulfide” (Scientific Reports, 2017).

What was measured:
recombinant CSE = target: T1, recombinant CSE (Rattus norvegicus, UniProt P18757); test: Inhibitory activity towards purified CSE by gas chromatography; format: biochemical; conditions: 100 μM compound, 10 mM L-cysteine
T1 construct: GST (N, cleaved yes); made in house; host or cells: E. coli DH5α
Procedure: (§1) Figure 2 Selectivity assessment of hit compounds for 3MST over other H2S/polysulfides-producing enzymes and rhodanese. (a) 3MST-Inhibitory activity of hit compounds at 10 and 100 μM in cell lysate of 3MST-expressing HEK293 cells. 100 μM 3MP and 100 μM DTT were added to the solution containing 0.1% DMSO as a cosolvent, and the mixture was incubated at 37 °C for 15 min. H2S production was measured by gas chromatography. All data are presented as the mean ± S.D. (100 μM: n = 3 or 4; 10 μM: n = 3). (b) Selectivity assessment of hit compounds at 100 μM towards CBS and CSE. Only DMSO was added to the control sample instead of DMSO solution containing hit compounds. H2S production was monitored by gas chromatography. All data are presented as the mean (n = 3). (c) Detection method for rhodanese activity (Sörbo method). (d) Selectivity assessment of hit compounds towards rhodanese. The results are mean ± S.D. (n = 4, three times). These values were determined based upon the absorbance of [Fe(SCN)3] at 460 nm (Sӧrbo method). Bovine rhodanese 1.3–1.7 units/mL, substrate: 52 mM Na2S2O3, 50 mM KCN, 0.004% (w/v) BSA, 100 μM compound and DMSO 1% (v/v) in 88 mM potassium phosphate buffer (pH 8.6) at room temperature for 5 min incubation. (e) Fluorescence confocal microscopic images of live COS7 cells transfected with 3MST or an empty vector[9] as a control. Cells were incubated with 50 μM SSP4, a fluorescent probe for sulfane sulfur, and 10 μM, 1 μM, 0.5 μM, 0.1 or 0 μM compound 3 in DMEM containing 0.6% DMSO for 30 min, then washed with HBSS and placed in fresh DMEM with 0‒10 μM compound 3 (Pre). 500 μM 3MP was added to the cells and the cells were incubated for 10 min (10 min). (f) Graphic representation of (e). F/F0 was calculated by dividing the fluorescence intensity of cells after addition of 500 μM 3MP (10 min) by that of cells before addition of 500 μM 3MP (Pre), then the mean F/F0 was determined from 5 cells. All data represent the mean ± standard error of the mean (SEM) of three experiments.
GST-tagged rat CSE-HA or rat CBS-HA was expressed in E. coli DH5α as follows. […]

recombinant CBS = target: T2, recombinant CBS (Rattus norvegicus, UniProt P32232); test: Inhibitory activity towards purified CBS by gas chromatography; format: biochemical; conditions: 100 μM compound, 10 mM L-cysteine and DL-homocysteine
T2 construct: GST (N, cleaved yes); made in house; host or cells: E. coli DH5α
T2 sequence (P32232 1-561): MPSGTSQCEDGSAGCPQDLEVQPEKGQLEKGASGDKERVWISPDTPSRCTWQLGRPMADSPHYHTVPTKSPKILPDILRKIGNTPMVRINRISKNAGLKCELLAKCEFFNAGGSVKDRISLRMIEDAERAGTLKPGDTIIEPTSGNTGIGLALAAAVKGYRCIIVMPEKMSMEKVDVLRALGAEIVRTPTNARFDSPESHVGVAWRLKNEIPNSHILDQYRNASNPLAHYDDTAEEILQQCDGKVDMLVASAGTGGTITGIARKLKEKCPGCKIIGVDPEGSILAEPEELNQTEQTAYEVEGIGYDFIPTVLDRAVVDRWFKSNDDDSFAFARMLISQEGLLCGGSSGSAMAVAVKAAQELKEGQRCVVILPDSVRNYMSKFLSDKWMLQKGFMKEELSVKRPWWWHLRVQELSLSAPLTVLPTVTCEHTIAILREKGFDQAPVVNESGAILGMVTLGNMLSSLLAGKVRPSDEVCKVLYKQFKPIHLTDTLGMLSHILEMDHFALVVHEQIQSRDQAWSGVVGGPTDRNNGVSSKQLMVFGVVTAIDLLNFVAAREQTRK
Procedure: as §1
GST-tagged rat CSE-HA or rat CBS-HA was expressed in E. coli DH5α as follows. E. coli DH5α transformed with the pGEX-rCSE-HA or pGEX-rCBS-HA plasmid was cultured overnight in LB medium containing 100 μg/mL ampicillin (and 0.3 mM 5-aminolevulinic acid, for CBS) at 37 °C, and the 120 mL culture was inoculated into 2400 mL of LB medium. Further growth of the culture was performed at 37 °C with vigorous shaking until OD600 reached 0.8. IPTG was added to the E. coli DH5α culture at a final concentration of 0.1 mM and incubation was continued at 18 °C. […]

Cc1cc(=O)[nH]c(SCC(=O)c2cccc3ccccc23)n1 [compound 3]
Inhibition of recombinant CSE enzymatic activity (H2S production) (recombinant CSE): almost inactive | Inhibition of recombinant CBS enzymatic activity (H2S production) (recombinant CBS): almost inactive

Cc1sc2nc(SCC(=O)c3ccc(O)cc3O)[nH]c(=O)c2c1C [compound 2]
Inhibition of recombinant CSE enzymatic activity (H2S production) (recombinant CSE): enhanced H2S production | Inhibition of recombinant CBS enzymatic activity (H2S production) (recombinant CBS): enhanced H2S production

O=C(O)c1cccc(NS(=O)(=O)c2ccccc2)c1 [compound 5]
Inhibition of recombinant CBS enzymatic activity (H2S production) (recombinant CBS): enhancement of H2S production

NC(=O)c1ccsc1NC(=O)CSc1nc2ccccc2c(=O)[nH]1 [compound 1]
inhibition at 100 µM (recombinant CSE; read-out: Inhibition of recombinant CSE enzymatic activity (H2S production)): ~25% | inhibition at 100 µM (recombinant CBS; read-out: Inhibition of recombinant CBS enzymatic activity (H2S production)): ~25%
